Measurements taken from patent US20260224589A1 (priority 2023, published 2026).

System: AsPC-1 cells
Assay: phospho-ERK HTRF assay in AsPC-1 cells, 4 h treatment
Format: cell-based
Details: Homo sapiens, ASPC1; AsPC-1, 4H; Table 1a class column; read-out: pERK IC50 activity range (*)

Compound | IC50 [nM]
CON(C)C(=O)c1nn2c(c1C)CN(c1nc(OC[C@@]34CCCN3C/C(=C\F)C4)nc3c1COC(c1cc(N)cc(Cl)c1C(F)(F)F)C3)CCC2 (stereo partly drawn) [compound 450, 5-(7-(5-amino-3-chloro-2-(trifluoromethyl)phenyl)-2-(((S,Z)-2-(fluoromethylene)tetrahydro-1H-pyrrolizin-7a(5H)-yl)methoxy)-7,8-dihydro-5H-pyrano[4,3-d]pyrimidin-4-yl)-N-methoxy-N,3-dimethyl-5,6,7,8-tetrahydro-4H-pyrazolo[1,5-a][1,4]diazepine-2-carboxamide] | 10 to 30
CON(C)C(=O)c1nn2c(c1Cl)CN(c1nc(OC[C@]34CCCN3C[C@@H](C=C(F)F)C4)nc3c1COC(c1cc(N)cc(Cl)c1C(F)(F)F)C3)CCC2 (some centres unmarked) [compound 451] | 10 to 30
CON(C)C(=O)c1nn2c(c1Cl)CN(c1nc(OC[C@@]34CCCN3C[C@H](F)C4)nc3c1COC(c1cc(N)cc(Cl)c1C(F)(F)F)C3)CCC2 (some centres unmarked) [compound 452] | 10 to 30
CON(C)C(=O)c1nn2c(c1Cl)CN(c1nc(OC[C@@]34CCCN3CC(=C(F)F)C4)nc3c1COC(c1c(F)c(N)cc(Cl)c1C(F)(F)F)C3)CCC2 (some centres unmarked) [compound 454] | 10 to 30
CON(C)C(=O)c1nn2c(c1Cl)CN(c1nc(OC[C@@]34CCCN3C/C(=C\F)C4)nc3c1COC(c1c(F)c(N)cc(Cl)c1C(F)(F)F)C3)CCC2 (some centres unmarked) [compound 463] | 10 to 30
CON(C)C(=O)c1nn2c(c1Cl)CN(c1nc(OC[C@@]34CCCN3C[C@H](F)C4)nc3c1COC(c1c(F)c(N)cc(C)c1C(F)(F)F)C3)CCC2 (stereo partly drawn) [compound 464, 5-(2-{[(2R,7aS)-2-fluoro-hexahydropyrrolizin-7a-yl]methoxy}-7-[3-amino-2-fluoro-5-methyl-6-(trifluoromethyl)phenyl]-5H,7H,8H-pyrano[4,3-d]pyrimidin-4-yl)-3-chloro-N-methoxy-N-methyl-4H,6H,7H,8H-pyrazolo[1,5-a][1,4]diazepine-2-carboxamide] | 10 to 30

Same assay, conditions: Homo sapiens, ASPC1; AsPC-1, 4h; Table 1b; read-out: PERK IC50 (AsPC-1, 4h)

Compound | IC50 [nM]
CCN(C)C(=O)c1nn2c(c1Cl)CN(c1nc(OC[C@@]34CCCN3C/C(=C\F)C4)nc3c1CO[C@H](c1c(F)c(N)cc(Cl)c1C(F)(F)F)C3)CCC2 [compound 432] | < 10
CCN(C)C(=O)c1nn2c(c1Cl)CN(c1nc(OC[C@@]34CCCN3C[C@H](F)C4)nc3c1CO[C@H](c1c(F)c(N)cc(Cl)c1C(F)(F)F)C3)CCC2 [compound 433] | < 10
CCN(CC)C(=O)c1nn2c(c1Cl)CN(c1nc(OC[C@@]34CCCN3C/C(=C\F)C4)nc3c1CO[C@H](c1c(F)c(N)cc(Cl)c1C(F)(F)F)C3)CCC2 [compound 434] | < 10
CC#Cc1cc(N)c(F)c([C@@H]2Cc3nc(OC[C@@]45CCCN4C[C@H](F)C5)nc(N4CCCn5nc(C(=O)N(C)C)c(Cl)c5C4)c3CO2)c1C(F)(F)F [compound 435] | < 10
CN(C)C(=O)c1nn2c(c1Cl)CN(c1nc(OC[C@@]34CCCN3C/C(=C\F)C4)nc3c1CO[C@H](c1c(F)c(N)cc(Cl)c1Cl)C3)CCC2 [compound 436] | < 10
CC#Cc1cc(N)c(F)c([C@@H]2Cc3nc(OC[C@@]45CCCN4C/C(=C\F)C5)nc(N4CCCn5nc(C(=O)N(C)C)c(Cl)c5C4)c3CO2)c1C(F)(F)F [compound 437] | < 10
CN(C)C(=O)c1nn2c(c1Cl)CN(c1nc(OC[C@@]34CCCN3C/C(=C\F)C4)nc3c1COC(c1cc(N)cc(Cl)c1C1CC1)C3)CCC2 (some centres unmarked) [compound 438] | < 10
CN(C)C(=O)c1nn2c(c1Cl)CN(c1nc(OC[C@@]34CCCN3C/C(=C\F)C4)nc3c1CO[C@H](c1cc(N)cc(Cl)c1C1CC1)C3)CCC2 [compound 439] | < 10
Cc1c(C(=O)N(C)C)nn2c1CN(c1nc(OC[C@@]34CCCN3C/C(=C\F)C4)nc3c1CO[C@H](c1c(F)c(N)cc(Cl)c1C(F)(F)F)C3)CCC2 [compound 440] | < 10
Cc1c(C(=O)N(C)C)nn2c1CN(c1nc(OC[C@@]34CCCN3C[C@H](F)C4)nc3c1CO[C@H](c1c(F)c(N)cc(Cl)c1C(F)(F)F)C3)CCC2 [compound 441] | < 10
Cc1c(C(=O)N(C)C)nn2c1CN(c1nc(OC[C@@]34CCCN3C/C(=C\F)C4)nc3c1CO[C@H](c1c(F)c(N)cc(Cl)c1Cl)C3)CCC2 [compound 442] | < 10
CC#Cc1cc(N)c(F)c([C@@H]2Cc3nc(OC[C@@]45CCCN4C[C@H](F)C5)nc(N4CCCn5nc(C(=O)N(C)C)c(C)c5C4)c3CO2)c1C(F)(F)F [compound 444] | < 10
Cc1c(C(=O)N(C)C)nn2c1CN(c1nc(OC[C@]34CCCN3C[C@@H](C=C(F)F)C4)nc3c1CO[C@H](c1cc(N)cc(Cl)c1C(F)(F)F)C3)CCC2 [compound 447] | < 10
CON(C)C(=O)c1nn2c(c1Cl)CN(c1nc(OC[C@@]34CCCN3C[C@H](F)C4)nc3c1CO[C@H](c1cc(N)cc(Cl)c1C(F)(F)F)C3)CCC2 [compound 448] | < 10
CON(C)C(=O)c1nn2c(c1Cl)CN(c1nc(OC[C@@]34CCCN3C/C(=C\F)C4)nc3c1COC(c1cc(N)cc(Cl)c1C(F)(F)F)C3)CCC2 (some centres unmarked) [compound 449] | < 10
CN(C)C(=O)c1nn2c(c1Cl)CN(c1nc(OC[C@]34CCCN3C[C@@H](C=C(F)F)C4)nc3c1CO[C@H](c1cc(N)cc(Cl)c1C(F)(F)F)C3)CCC2 [compound 456] | < 10
C[C@@]1(O)COCCN(c2nc(OC[C@]34CCCN3C[C@@H](C=C(F)F)C4)nc3c2CO[C@H](c2cc(N)cc(Cl)c2C(F)(F)F)C3)C1 [compound 457] | < 10
Cc1c(C(=O)N(C)C)nn2c1CN(c1nc(OC[C@]34CCCN3C[C@@H](C=C(F)F)C4)nc3c1CO[C@H](c1c(F)c(N)cc(Cl)c1C(F)(F)F)C3)CCC2 [compound 458] | < 10
CN(C)C(=O)c1nn2c(c1Cl)CN(c1nc(OC[C@]34CCCN3C[C@@H](C=C(F)F)C4)nc3c1CO[C@H](c1c(F)c(N)cc(Cl)c1C(F)(F)F)C3)CCC2 [compound 459] | < 10
CN(C)C(=O)c1nn2c(c1Cl)CN(c1nc(OC[C@]34CCCN3C[C@@H](C=C(F)F)C4)nc3c1COC(c1c(F)c(N)cc(Cl)c1C(F)(F)F)C3)CCC2 (some centres unmarked) [compound 460] | < 10
CON(C)C(=O)c1nn2c(c1Cl)CN(c1nc(OC[C@@]34CCCN3C/C(=C\F)C4)nc3c1CO[C@H](c1c(F)c(N)cc(Cl)c1C(F)(F)F)C3)CCC2 [compound 461] | < 10

Same assay, conditions: Homo sapiens, ASPC1; Table 3; read-out: pERK Inhibition AsPC-1 IC50

Compound | IC50 [nM]
CN(C)C(=O)c1nn2c(c1Cl)CN(c1nc(OC[C@@]34CCCN3C[C@H](F)C4)nc3c1CO[C@H](c1c(C(F)(F)F)ccc(N)c1F)C3)CCC2 (single isomer, unassigned) [Example 1] | 12.8

System: SW-620
Assay: phospho-ERK HTRF assay in SW-620 cells, 4 h treatment
Format: cell-based
Details: Homo sapiens, Table 3, read-out: pERK Inhibition SW-620 IC50

Compound | IC50 [nM]
CN(C)C(=O)c1nn2c(c1Cl)CN(c1nc(OC[C@@]34CCCN3C[C@H](F)C4)nc3c1CO[C@H](c1c(C(F)(F)F)ccc(N)c1F)C3)CCC2 (single isomer, unassigned) [Example 1] | 14.4
